Test results taken from paper PMC3570588 (ChemMedChem, 2012).
Values after ≈ are worked out from the molar mass of the structure shown.

Columns and labels:
S. aureus DHFR = S. aureus DHFR (Staphylococcus aureus, UniProt P0A017); type: biochemical; conditions: read-out: Ki, nM (SEM) S. aureus 29213; pH 7.0, 30 °C
B. anthracis Sterne = type: cell-based, Bacillus anthracis
S. aureus 29213 = type: cell-based, Staphylococcus aureus
B. anthracis DHFR = B. anthracis DHFR (Bacillus anthracis, UniProt Q81R22); type: biochemical; conditions: read-out: Ki, nM (SEM) B. anthracis Sterne; pH 7.0, 30 °C
B. anthracis DHFR, sequence (Q81R22 1-162): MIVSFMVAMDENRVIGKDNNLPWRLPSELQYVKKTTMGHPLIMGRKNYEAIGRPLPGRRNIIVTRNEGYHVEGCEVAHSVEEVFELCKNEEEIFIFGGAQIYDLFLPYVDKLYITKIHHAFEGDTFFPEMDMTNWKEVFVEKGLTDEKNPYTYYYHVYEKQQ

S. aureus DHFR, sequence (P0A017 whole entry): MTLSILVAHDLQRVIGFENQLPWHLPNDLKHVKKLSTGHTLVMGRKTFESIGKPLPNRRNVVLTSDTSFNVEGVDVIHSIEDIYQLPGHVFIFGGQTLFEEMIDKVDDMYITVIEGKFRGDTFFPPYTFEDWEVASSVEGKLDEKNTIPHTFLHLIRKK

CCCc1nc(N)nc(N)c1Cc1cc(/C=C/C(=O)N2N=Cc3ccccc3C2C=C(C)C)c(OC)c(OC)c1 (racemic) [Compound 12c, (±)-(E)-3-{5-[(2,4-Diamino-6-propyl-5-pyrimidinyl)methyl]-2,3-dimethoxyphenyl}-1-(1-isobutenyl-2(1H)-phthalazinyl)-2-propen-1-one]
Ki (S. aureus DHFR): 4.1 nM | MIC, μg/mL B. anthracis Sterne (B. anthracis Sterne): 2 µg/mL (≈ 3.7 µM) | MIC, μg/mL S. aureus 29213 (S. aureus 29213): 2 µg/mL (≈ 3.7 µM)

CCc1nc(N)nc(N)c1Cc1cc(/C=C/C(=O)N2N=Cc3ccccc3C2C=C(C)C)c(OC)c(OC)c1 (racemic) [Compound 12b, (±)-(E)-3-{5-[(2,4-Diamino-6-ethyl-5-pyrimidinyl)methyl]-2,3-dimethoxyphenyl}-1-(1-isobutenyl-2(1H)-phthalazinyl)-2-propen-1-one]
Ki (S. aureus DHFR): 2.9 nM | MIC, μg/mL B. anthracis Sterne (B. anthracis Sterne): 4 µg/mL (≈ 7.6 µM) | Ki (B. anthracis DHFR): 25.4 nM | MIC, μg/mL S. aureus 29213 (S. aureus 29213): 0.25 to 0.5 µg/mL

COc1cc(Cc2c(C)nc(N)nc2N)cc(/C=C/C(=O)N2N=Cc3ccccc3C2C=C(C)C)c1OC (racemic) [Compound 12a, (±)-(E)-3-{5-[(2,4-Diamino-6-methyl-5-pyrimidinyl)methyl]-2,3-dimethoxyphenyl}-1-(1-isobutenyl-2(1H)-phthalazinyl)-2-propen-1-one]
Ki (S. aureus DHFR): 3.4 nM | MIC, μg/mL B. anthracis Sterne (B. anthracis Sterne): 4 µg/mL (≈ 7.8 µM) | Ki (B. anthracis DHFR): 14.3 nM | MIC, μg/mL S. aureus 29213 (S. aureus 29213): 0.25 to 0.5 µg/mL

CCCC1c2ccccc2C=NN1C(=O)/C=C/c1cc(Cc2c(C)nc(N)nc2N)cc(OC)c1OC (racemic) [Compound 11a, (±)-(E)-3-{5-[(2,4-Diamino-6-methyl-5-pyrimidinyl)methyl]-2,3-dimethoxyphenyl}-1-(1-propyl-2(1H)-phthalazinyl)-2-propen-1-one]
Ki (S. aureus DHFR): 4.5 nM | MIC, μg/mL B. anthracis Sterne (B. anthracis Sterne): 8 µg/mL (≈ 16 µM) | Ki (B. anthracis DHFR): 72.4 nM | MIC, μg/mL S. aureus 29213 (S. aureus 29213): 0.5 µg/mL (≈ 0.999 µM)

CCCc1nc(N)nc(N)c1Cc1cc(/C=C/C(=O)N2N=Cc3ccccc3C2CCC)c(OC)c(OC)c1 (racemic) [Compound 11c, (±)-(E)-3-5-[(2,4-Diamino-6-propyl-5-pyrimidinyl)methyl]-2,3-dimethoxyphenyl}-1-(1-propyl-2(1H)-phthalazinyl)-2-propen-1-one]
Ki (S. aureus DHFR): 4 nM | MIC, μg/mL B. anthracis Sterne (B. anthracis Sterne): 1 µg/mL (≈ 1.89 µM) | MIC, μg/mL S. aureus 29213 (S. aureus 29213): 1 to 2 µg/mL

CCCC1c2ccccc2C=NN1C(=O)/C=C/c1cc(Cc2c(N)nc(N)nc2CC)cc(OC)c1OC (racemic) [Compound 11b, (±)-(E)-3-5-[(2,4-Diamino-6-ethyl-5-pyrimidinyl)methyl]-2,3-dimethoxyphenyl}-1-(1-propyl-2(1H)-phthalazinyl)-2-propen-1-one]
Ki (S. aureus DHFR): 3.6 nM | MIC, μg/mL B. anthracis Sterne (B. anthracis Sterne): 4 µg/mL (≈ 7.77 µM) | MIC, μg/mL S. aureus 29213 (S. aureus 29213): 0.5 to 2 µg/mL
